# From the supplement of paper PMC6045584
# ± gives the standard deviation of the averaged measurements.
# What was measured:
# LAPATINIB = compound: CS(=O)(=O)CCNCc1ccc(-c2ccc3ncnc(Nc4ccc(OCc5cccc(F)c5)c(Cl)c4)c3c2)o1 [LAPATINIB]; test: surviving fraction relative to DMSO-only wells; higher = less growth inhibition; settings: exposure time: 5 days
# Method in brief: (§1)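 After seeding at 250–500 cells per well in 384-well plates and a 24-hour wait, log-phase tumour cell lines were exposed without interruption for five days to inhibitors at 0.5, 1, 5, 10, 50, 100, 500 and 1000 nM. CellTiter-Glo luminescence was recorded after 10 minutes at room temperature. Viability is reported as surviving fraction, the luminescence normalised to the median of DMSO-only wells.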
# DECITABINE = compound: Nc1ncn([C@H]2C[C@H](O)[C@@H](CO)O2)c(=O)n1 [DECITABINE]; test: as above; settings: exposure time: 5 days
# Method in brief: as §1
Test System,surviving fraction (LAPATINIB; 0.5 nM),surviving fraction (LAPATINIB; 1 nM),surviving fraction (LAPATINIB; 5 nM),surviving fraction (LAPATINIB; 10 nM),surviving fraction (LAPATINIB; 50 nM),surviving fraction (LAPATINIB; 100 nM),surviving fraction (LAPATINIB; 500 nM),surviving fraction (LAPATINIB; 1000 nM),surviving fraction (DECITABINE; 0.5 nM),surviving fraction (DECITABINE; 1 nM),surviving fraction (DECITABINE; 5 nM),surviving fraction (DECITABINE; 10 nM),surviving fraction (DECITABINE; 50 nM),surviving fraction (DECITABINE; 100 nM),surviving fraction (DECITABINE; 500 nM),surviving fraction (DECITABINE; 1000 nM)
HUO3N1 BONE,1.05 ± 0.044,0.978 ± 0.069,1.08 ± 0.038,1.084 ± 0.01,1.02 ± 0.037,1.06 ± 0.043,0.876 ± 0.15,1 ± 0.065,0.958 ± 0.022,0.99 ± 0.024,1.03 ± 0.056,1.05 ± 0.019,1.04 ± 0.022,1 ± 0.014,0.901 ± 0.017,0.879 ± 0.025
JIMT1 BREAST,0.991 ± 0.035,1.02 ± 0.04,1.05 ± 0.039,1.01 ± 0.024,1 ± 0.035,1.01 ± 0.066,0.907 ± 0.065,0.783 ± 0.019,1.04 ± 0.021,0.999 ± 0.032,1 ± 0.018,0.9743 ± 0.0064,0.933 ± 0.038,0.819 ± 0.048,0.546 ± 0.036,0.471 ± 0.03
JURKAT HAEMATOPOIETIC AND LYMPHOID TISSUE,0.997 ± 0.078,1.02 ± 0.061,0.936 ± 0.037,0.959 ± 0.017,0.933 ± 0.055,0.947 ± 0.025,1.01 ± 0.012,1.011 ± 0.0081,1 ± 0.04,1.06 ± 0.025,0.823 ± 0.022,0.746 ± 0.034,0.121 ± 0.0055,0.072 ± 0.003,0.0327 ± 0.00058,0.028 ± 0.001
KPD BONE,0.984 ± 0.055,1.08 ± 0.03,1.05 ± 0.02,1.03 ± 0.049,1.09 ± 0.06,1.08 ± 0.066,0.956 ± 0.08,0.951 ± 0.094,0.916 ± 0.057,0.919 ± 0.053,0.801 ± 0.022,0.692 ± 0.056,0.534 ± 0.023,0.464 ± 0.012,0.379 ± 0.026,0.353 ± 0.044
LM7 BONE,0.936 ± 0.046,1.07 ± 0.079,1.1 ± 0.034,1.1 ± 0.042,0.99 ± 0.057,1.06 ± 0.02,0.991 ± 0.022,0.955 ± 0.041,0.939 ± 0.025,1 ± 0.035,1.05 ± 0.05,0.983 ± 0.061,0.939 ± 0.027,0.91 ± 0.042,0.749 ± 0.044,0.742 ± 0.048
LNCAP PROSTATE,0.894 ± 0.055,0.981 ± 0.02,0.917 ± 0.086,0.981 ± 0.033,0.937 ± 0.061,0.891 ± 0.038,0.995 ± 0.035,0.951 ± 0.21,0.917 ± 0.037,1.02 ± 0.11,0.954 ± 0.083,1.01 ± 0.11,0.785 ± 0.02,0.695 ± 0.1,0.634 ± 0.044,0.522 ± 0.0079
MCF7 BREAST,0.988 ± 0.053,0.921 ± 0.032,0.931 ± 0.049,0.962 ± 0.043,0.961 ± 0.057,0.946 ± 0.096,0.946 ± 0.061,0.916 ± 0.023,0.932 ± 0.022,0.906 ± 0.065,0.887 ± 0.02,0.803 ± 0.02,0.843 ± 0.04,0.861 ± 0.026,0.842 ± 0.034,0.83 ± 0.043
MDAMB134 BREAST,0.967 ± 0.017,0.963 ± 0.1,0.975 ± 0.028,1 ± 0.14,1.04 ± 0.19,0.966 ± 0.083,0.956 ± 0.071,0.806 ± 0.062,0.979 ± 0.082,1.06 ± 0.26,1.04 ± 0.1,1.02 ± 0.023,1.1 ± 0.12,1.25 ± 0.059,1.15 ± 0.042,1.22 ± 0.016
MDAMB157 BREAST,1 ± 0.11,0.991 ± 0.11,1.09 ± 0.034,1.04 ± 0.095,1.01 ± 0.064,1.008 ± 0.0098,0.951 ± 0.082,0.931 ± 0.041,0.998 ± 0.013,0.907 ± 0.046,0.922 ± 0.13,0.897 ± 0.065,0.632 ± 0.042,0.547 ± 0.058,0.41 ± 0.075,0.382 ± 0.059
MDAMB231 BREAST,0.9471 ± 0.0072,1.01 ± 0.032,0.986 ± 0.029,0.9838 ± 0.0088,0.96 ± 0.019,1.02 ± 0.012,1.013 ± 0.0062,1.01 ± 0.021,1 ± 0.034,0.986 ± 0.024,1.01 ± 0.028,1 ± 0.022,1.01 ± 0.021,0.965 ± 0.013,0.865 ± 0.016,0.835 ± 0.039
MDAMB361 BREAST,0.891 ± 0.12,0.823 ± 0.11,0.902 ± 0.096,0.874 ± 0.065,0.864 ± 0.028,0.711 ± 0.041,0.724 ± 0.096,0.672 ± 0.069,0.895 ± 0.057,0.909 ± 0.034,0.938 ± 0.08,0.875 ± 0.038,0.906 ± 0.19,0.915 ± 0.17,0.99 ± 0.2,0.921 ± 0.084
